Tested on: proliferating OPC
Assay: Number of cell divisions per colony in TH- or RA-containing medium, oxygen 1.5% by volume (Example 3)
Format: cell-based, rat
Conditions: RA 1 ng/mL; 1.5% O2; 12 days
Experimental: In addition, unless specifically indicated otherwise, the proliferating OPC used in the following examples were isolated from the optic nerves of 7-day-old rats (P7) in accordance with the immunopanning method of Barres, et al. (Barres, et al., Cell, 1992, Vol. 70, p. 31-46), and the purity thereof (percentage of proliferating OPC relative to all cells) was 99.9% or more.
Proliferating OPC were cultured in medium to which was added thyroid hormone or medium to which was added retinoic acid in an environment having an oxygen concentration of 1.5% by volume followed by investigating the effect of retinoic acid […] on the proliferating OPC.
Six glass bottom culture dishes having a diameter of 12 mm and-coated with PDL were prepared by seeding with 300 proliferating OPC per culture disk, followed by culturing for 12 days at 37° C. in an environment having an oxygen concentration of 1.5% by volume and carbon dioxide concentration of 5% by volume. […]
Following completion of culturing, the numbers of cells that formed colonies were respectively counted and the number of cell divisions was determined for each colony. […]

SMILES: CC1=C(/C=C/C(C)=C/C=C/C(C)=C/C(=O)O)C(C)(C)CCC1 [RA, all-trans retinoic acid]
- effect on proliferating OPC in a low oxygen environment: able to interrupt proliferation of proliferating OPC and induce differentiation to adult OPC

Source: patent publication US10202580B2, “Adult oligodendrocyte-type 2 astrocyte progenitor cell production method” (Japan Science and Technology Agency, priority 2014, dated 2019)
